The record followed here is patent US9365534B2, “Arylated camphenes, processes for their preparation and uses thereof” (Yissum Research Development Company of the Hebrew …, priority 2009, dated 2016).

Test [1] addresses T1, human CB2 receptor (Homo sapiens (Human), UniProt P34972). Put plainly: Membrane [35S]GTPγS binding assay. The format is biochemical. Particulars: for Emax: read-out: [35S]GTPγS Emax. How it is done:
Human CB2 expressing CHO-K1 membranes (5 μg per incubation mixture) were diluted in 50 mM Tris-HCl (pH 7.5) and 0.5 mM EDTA and added to HU compounds in a pre-mixed incubation cocktail. Final incubation concentrations were 55 mM Tris-HCl (pH 7.4), 1 mM EDTA, 100 mM NaCl, 5 mM MgCl2, 0.5% BSA, 50 μM GDP, 0.2 nM [^35S]GTPγS (PerkinElmer) with varied HU compound concentration and 5 μg membrane. Incubations were continued for 60 minutes at 30° C. in a shaking water bath. Assays were terminated by addition of 2 ml ice cold wash buffer (50 mM Tris-HCl, pH 7.5 and 5 mM MgCl2) and filtration through pre-soaked GF/C filters (Whatman), followed by two further washes. adioactivity was determined as described for competition binding assays.
Data was analyzed using the Prism 4.02 programme (GraphPad Software, San Deigo, Calif., USA). IC50 and EC50 values, as determined from sigmoidal curves, were generated from drug concentrations plotted in log scale. […] It is possible to display data as an average, plus or minus the standard error of the mean in log form, however, this is not easily interpreted or compared to other values. It was therefore elected to calculate the 95% confidence interval for the mean value in log form and then convert the lower limit, mean and upper limit into the molar (linear) scale. […] Two-tailed t-tests for statistical analysis between enantiomeric pairs of compounds were performed for CB2 Ki values. The Pearson value, an indication of linearity, was determined for Ki and IC50 or EC50 results obtained for CB2 receptors in binding, cAMP or GTPγS experiments, respectively.

The target of test [2] is T2, human CB1 receptor (Homo sapiens (Human), UniProt P21554). Put plainly: Membrane competition binding assay with [3H]-CP 55,940, CHO-CB1 membranes. An excerpt:
(§1) The cDNA clones for human HA-tagged CB1 and CB2 receptors were obtained from the Missouri S&T cDNA Resource Center (www.cdna.org) in cloning vector pcDNA3.1+. The vector containing the human CB2 receptor was transfected directly into CHO-KI cells obtained from ATCC. The HA-tagged human CB1 receptor sequence was subcloned into the pef4-V5-HisA vector with Kpn1 and Pme1 restriction enzymes and subsequently transfected into CHO-K1 cells. Cells were clonally isolated by limited dilution and screened by immunocytochemistry for expression of the HA tag.
(§2) Cells were maintained in DMEM/F12 media supplemented with 10% fetal bovine serum (FBS), 100 units/ml penicillin and 100 μg/ml streptomycin and 2 mM L-glutamine. Transfected cell lines were maintained with additional 150 ug/ml zeocin for pEF HA-CB1 transfected cells and 500 ug/ml G-418 for pcDNA HA-CB2 transfected cells (all reagents obtained from Invitrogen).
(§3) Cells were grown to confluence and harvested in ice cold phosphate buffered saline with 5 mM EDTA. Cells were spun at 200×g for 10 min and frozen at −80° C. until required. Cell pellets were thawed with cold 0.32 M sucrose and homogenised with a glass homogeniser. The homogenate was spun at 1000×g for 10 min at 4° C. and the supernatant spun in a Sorvall ultracentrifuge for 30 min at 100,000×g. The pellet was then washed in ice cold water and re-spun twice more. The final pellet was resuspended in 50 mM Tris pH 7.5, 0.5 mM EDTA. Protein concentration was determined using the Dc protein assay kit (BioRad, Hercules, Calif., USA).
(§4) Membranes (5-10 μg) were incubated with radioligand and a range of concentrations of test compounds in binding buffer (50 mM Tris pH 7.4, 5 mM MgCl2, 1 mM EDTA) with 0.5% (w/v) bovine serum albumin (BSA) (ICP Bio, New Zealand), at 30° C. for 60 min. Stock solutions of putative cannabinoid ligands were prepared in dimethyl sulfoxide to a concentration of 10 mM. Six different final concentrations of compounds were used ranging from 50 μM to 0.1 nM. […] Assays were terminated by addition of 2 ml ice cold binding buffer and filtration through GF/C filters (Whatman) pre-soaked in cold binding buffer, followed by two washes in the same buffer.
(§5) Radioactivity was determined by incubation of filters with Irgasafe scintillation fluid (PerkinElmer) and scintillation counting in a Wallac Trilux using Microbeta Trilux software. Data was analysed using the Prism 4.02 programme (GraphPad Software, San Deigo, Calif., USA).
(§6) All data was analyzed using Prism 4.02. For binding data the Ki was determined from IC50 values derived from competition binding data fitted with one site competition non-linear regression analysis by Prism 4.02 using the Kd values reported above.

Test [3] deals with T2, human CB1 receptor. Put plainly: cell-based.
Description: as §1, §2
(§7) Cells were seeded at a density of 10,000 cells per well in poly-L-lysine treated 96-well culture plates (BD Biosciences). The following day wells were incubated with 40 μl DMEM/F12 containing 0.5% (w/v) BSA and 0.5 mM 3-isobutyl-1-methylxanthine (Sigma-Aldrich) for 30 minutes prior to 15 min stimulation with 50 μM forskolin (Tocris Cookson) and varying concentrations of indicated compounds at 37° C., 5% CO2. Assays were stopped by removal of media and addition of 100% ice cold ethanol. Plates were then frozen for a minimum of two hours before complete evaporation of ethanol. The well contents were then reconstituted in 50 μl cAMP assay buffer (20 mM HEPES pH 7.5 and 5 mM EDTA). Half of the reconstituted sample was transferred to round bottom 96-well plates (Greiner Bio-One GmbH) with 50 μl 0.01% w/v PKA (cAMP dependent protein kinase (Sigma-Aldrich) in 1 mM Na citrate pH 6.5 with 2 mM dithiothreitol) and 25 μl [^3H]-cAMP (at 22 nM in cAMP assay buffer) (GE Healthcare, Life Sciences). This was allowed to equilibrate for 3-18 hours. Following this a charcoal slurry (5% (w/v) activated charcoal and 0.2% (w/v) BSA in cAMP assay buffer) was added to the samples and the plates centrifuged at 3000×g, 4° C. for 5 min. Radioactive counts within the supernatant were then determined as described for competition binding assays.
(§8) pIC50 values were determined from cAMP assays by fitting a sigmoidal concentration response curve using Prism 4.02.

The target of test [4] is T1, human CB2 receptor. Put plainly: cell-based.
Description: as §1, §2, §7, §8

In test [5] the target is T1, human CB2 receptor. Put plainly: Membrane competition binding assay with [3H]-CP 55,940, CHO-CB2 membranes.
Description: as §1, §2, §3, §4, §5, §6

The mark [6] stands for this setting: CHO, read-out: cAMP Assay CB2 Receptor Emax.
The mark [7] stands for this setting: CHO-CB1 cellular membranes, 2.5 nM [3H]-CP 55,940, read-out: Competition Binding Assay CB1 Receptor Ki.
Setting [8] is: whole cells expressing CB1, 50 μM forskolin, read-out: cAMP Assay CB1 Receptor IC50.
[9] abbreviates: read-out: cAMP Assay CB2 Receptor IC50.
[10] abbreviates: human CB2 CHO-K1 membranes, mean (95% confidence interval), n = 5.
Setting [11] is: CHO-CB2 cellular membranes, 2.5 nM [3H]-CP 55,940.
[12] abbreviates: CHO; read-out: cAMP Assay CB2 Receptor Emax.
The mark [13] stands for this setting: whole cells expressing CB2, 50 μM forskolin; read-out: cAMP Assay CB2 Receptor IC50.

Where two headings read alike, the source gives them in different places.

T2 sequence (P21554 whole entry): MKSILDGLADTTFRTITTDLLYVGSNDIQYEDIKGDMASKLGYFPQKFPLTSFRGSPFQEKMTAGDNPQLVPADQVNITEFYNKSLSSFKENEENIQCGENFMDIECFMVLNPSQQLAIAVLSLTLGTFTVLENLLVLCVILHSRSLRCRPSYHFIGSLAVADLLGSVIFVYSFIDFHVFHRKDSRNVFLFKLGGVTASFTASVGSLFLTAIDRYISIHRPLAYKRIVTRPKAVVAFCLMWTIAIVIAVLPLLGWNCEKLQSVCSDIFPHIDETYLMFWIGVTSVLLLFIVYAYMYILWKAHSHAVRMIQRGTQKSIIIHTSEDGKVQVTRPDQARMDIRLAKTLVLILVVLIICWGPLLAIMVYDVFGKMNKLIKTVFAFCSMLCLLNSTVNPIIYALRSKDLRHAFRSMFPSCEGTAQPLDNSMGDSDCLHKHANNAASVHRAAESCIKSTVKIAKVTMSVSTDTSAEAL

For the compound `CCCCCCC(C)(C)c1cc(OC)c([C@@H]2C=C(CO)[C@@H]3C[C@H]2C3(C)C)c(OC)c1` [HU-308, [(1R,2R,5R)-2-[2,6-dimethoxy-4-(2-methyloctan-2-yl)phenyl]-7,7-dimethyl-4-bicyclo[3.1.1]hept-3-enyl]methanol, reference compound], the maximal effect (Emax) at human CB2 receptor [1] and at human CB2 receptor [4] (setting [6]) was 100% each time. Also, the Ki on human CB1 receptor [2] is above 50000 nM. The half-inhibitory concentration (IC50) against human CB1 receptor [3] was above 50000 nM.

Turning to `CCCCCCC(C)(C)c1cc(OC)c(C2=C[C@@H]3CC[C@@]2(CO)C3(C)C)c(OC)c1` [HU-909, (1R,4S)-(2-(2,6-dimethoxy-4-(2-methyloctan-2-yl)phenyl)-7,7-dimethylbicyclo[2.2.1]hept-2-en-1-yl)methanol], a half-maximal effect at human CB2 receptor [1] (EC50) was put at 136 nM. Besides, the figures for the Emax at human CB2 receptor [1] and on human CB2 receptor [4] (setting [6]) were 76 ± 7% and 95 ± 6%, respectively. Also, the figures for the Ki on human CB1 receptor [2] (setting [7]) and at human CB2 receptor [5] were 11700 nM and 56.8 nM, respectively. Also, the values for the IC50 at human CB1 receptor [3] (setting [8]) and on human CB2 receptor [4] (setting [9]) were above 50000 nM and 425 nM, respectively.

Turning to `CCCCCCC(C)(C)c1cc(OC)c(C2=C[C@@H]3CC[C@@]2(C(=O)OC)C3(C)C)c(OC)c1` [HU-911, (1R,4S)-methyl-2-(2,6-dimethoxy-4-(2-methyloctan-2-yl)phenyl)-7,7-dimethylbicyclo[2.2.1]hept-2-ene-1-carboxylate], the concentration giving a half-maximal response (EC50) on human CB2 receptor [1] (setting [10]) is 126 nM. For the same compound, the maximum response (Emax) at human CB2 receptor [1] came out at 94 ± 4%; at human CB2 receptor [4] (setting [12]), 86 ± 9%. In addition, the Ki at human CB1 receptor [2] (setting [7]) is above 50000 nM; at human CB2 receptor [5] (setting [11]), 84.6 nM. Besides, the IC50 on human CB1 receptor [3] (setting [8]) was above 50000 nM; at human CB2 receptor [4] (setting [13]) it was 385 nM.

Compound `CCCCCCC(C)(C)c1cc(OC)c(C2=C[C@@H]3CC[C@@]2(C(=O)O)C3(C)C)c(OC)c1` [HU-913, (1R,4S)-2-(2,6-dimethoxy-4-(2-methyloctan-2-yl)phenyl)-7,7-dimethylbicyclo[2.2.1]hept-2-ene-1-carboxylic acid] had an EC50 at human CB2 receptor [1] of 344 nM. Besides, the results for the maximum response (Emax) at human CB2 receptor [1] and at human CB2 receptor [4] (setting [6]) were 98 ± 3% and 101 ± 11%, respectively. Further, the results for the Ki on human CB1 receptor [2] (setting [7]) and at human CB2 receptor [5] were above 50000 nM and 81.5 nM, respectively. Besides, the IC50 on human CB1 receptor [3] (setting [8]) is above 50000 nM; on human CB2 receptor [4] (setting [9]), 330 nM.

For the compound `CCCCCCC(C)(C)c1cc(OC)c(C2C(=O)[C@]3(C)CC[C@H]2C3(C)C)c(OC)c1` (stereo partly drawn) [HU-926, (1R,4R)-3-(2,6-dimethoxy-4-(2-methyloctan-2-yl)phenyl)-1,7,7-trimethylbicyclo[2.2.1]heptan-2-one], the midpoint of the response on human CB2 receptor [1] (setting [10]), the EC50, lay at 185 nM. The Emax on human CB2 receptor [1] came to 51 ± 6%; on human CB2 receptor [4] (setting [12]), 100 ± 13%. In addition, the Ki on human CB1 receptor [2] (setting [7]) is above 50000 nM; at human CB2 receptor [5] (setting [11]) it was 106 nM. Further, the IC50 was above 50000 nM at human CB1 receptor [3] (setting [8]) and 321 nM at human CB2 receptor [4] (setting [13]).

Compound `CCCCCCC(C)(C)c1cc(OC)c(C2C(O)[C@]3(C)CC[C@H]2C3(C)C)c(OC)c1` (stereo partly drawn) [HU-928, (1R,4R)-3-(2,6-dimethoxy-4-(2-methyloctan-2-yl)phenyl)-1,7,7-trimethylbicyclo[2.2.1]heptan-2-ol] displayed an EC50 on human CB2 receptor [1] of 577 nM. Moreover, the maximum response (Emax) at human CB2 receptor [1] came out at 95 ± 5%; on human CB2 receptor [4] (setting [6]), 101 ± 11%. Moreover, the Ki at human CB1 receptor [2] (setting [7]) is above 50000 nM; on human CB2 receptor [5] it was 230 nM. Besides, the IC50 is above 50000 nM at human CB1 receptor [3] (setting [8]) and 925 nM on human CB2 receptor [4] (setting [9]).
